# Reference: patent US20100227797A1, “USE OF CYCLOLIGNANS FOR THE TREATMENT OF TYPE 2 DIABETES AND AS CONTRACEPTIVES” (AXELAR AB, priority 2006, published 2010)
# Values joined by “and” are separate entries in the source; they are usually repeats but may differ in a detail not shown here. Equal values may be shown once. Marks after values point to notes of the source that are not given here.
# How the values were obtained:
# [1] = Assay of blood glucose in mice after one week picropodophyllin treatment; assay type: in vivo, SCID mice; conditions: 20 mg/kg/12 h i.p.
# Protocol: Ten weeks old SCID mice were treated with PPP (20 mg/kg/12 h) intraperitoneally using DMSO as vehicle. Control mice were treated with vehicle only. Three mice were treated in each group. After treatment for 7 days, the mice were sacrificed 4 h after the last injections. Blood samples were taken and the concentration of glucose in the serum was determined by a dry slide technique using Vitros 950 Chemistry System. In this experiment, healthy SCID mice were treated with picropodophyllin by intraperitoneal injections twice daily, the dose being 20 mg/kg/12 h. The control group was treated with the vehicle only (totally per day: 20 μL DMSO). Each group included 3 mice.
# [2] = tested on: ovulation; experiment: Effect on ovulation in a mouse model; assay type: in vivo; conditions: female mice
# Protocol: Female mice were treated with picropodophyllin (PPP; 20 mg/kg/12 h, given intrapritoneally) on days −1 and 0 of mating. The vaginal plug was checked on the next morning. Six animals from each group were sacrificed 4 days after mating. The organs collected were ovaries, uterus, liver and spleen for biochemical analysis.
# [3] = tested on: implantation of the embryo; experiment: Effect on implantation in a mouse model; assay type: in vivo, mice; conditions: 20 mg/kg/12 h i.p., day 3 to 6 after plug
# Protocol: The animals were put for mating and the vaginal plug was checked on the next morning. Six female mice positive for vaginal plug were treated with picropodophyllin (20 mg/kg/12 h, given intraperitoneally) and six with vehicle (controls) from day 3 to 6 after the plug. They were sacrificed on day 9 after ovulation. The organs collected were ovaries, uterus, liver and spleen for biochemical analysis.
# [4] = tested on: macular degeneration lesions; experiment: Laser induction of macular degeneration lesions, mouse model; assay type: in vivo, C57Bl/6 mice; parameters: Area of macular degeneration: scale not given here
# Protocol: To induce macular degeneration lesions adult C57Bl/6 mice were anesthetized and three laser spots were placed in fundus flavimaculatus of the choroidea with a krypton red laser (614 nm, […], 0.05 second, 200 mW). The mice were then treated with PPP (20 mg/kg/12 h) intraperitoneally using DMSO as vehicle for two weeks. Control mice were treated with vehicle only. Twenty mice were treated in each group. Two weeks after the laser treatment, the animals were perfused with 3% FITC-conjugated high-molecular-weight dextran, sacrificed and choroidal flat mounts were prepared. Flat-mounts were examined with fluorescence microscopy Axioskop microscope. Macular degeneration lesions were identified as FITC-perfused vessels. Image-Pro Plus software was used to measure the area of each CNV lesion. Data were recorded as area of macular degeneration lesions (μm^2). Macular degeneration is the leading cause of vision loss. Macular degeneration lesions were induced in 40 adult C57Bl/6 mice by laser. Twenty animals received intraperitoneal (i.p.) injections of picropodophyllin (PPP; 20 mg/kg/12 h) for 2 weeks. Controls received i.p. injections of vehicle. Two weeks after the laser treatment the animals were sacrificed and choroidal flat mounts were prepared. Flat-mounts were examined with fluorescence microscopy. Image-Pro Plus software was used to measure the area of each CNV lesion.
smiles,measurement,setting,value
"COc1cc([C@@H]2c3cc4c(cc3[C@H](O)[C@H]3COC(=O)[C@@H]23)OCO4)cc(OC)c1OC [PPP, picropodophyllin]",Effect on blood glucose levels,"[1]; SCID mice, one week, compared to controls",decreased the blood glucose levels
same,Glucose level in serum,"[1]; individual SCID mice, 7 days, sampled 4 h after last injection, 20 mg/kg",4.5 mM (2×) and 5.7 mM
same,"Glucose level in serum, mean","[1]; mean of 3 SCID mice, 7 days, vehicle control mean 7.0",4.9 mM
same,Number of mice with positive plug,"[2]; 20 mg/kg/12 h i.p. on days -1 and 0 of mating, n = 36, vehicle 3 of 6",n = 0
same,Percent ovulated mice,"[2]; 20 mg/kg/12 h i.p. on days -1 and 0 of mating, vehicle 50%",0%
same,Inhibition of ovulation,"[2]; 20 mg/kg/12 h i.p., P=0.005919, Fishers exact test",did not ovulate at all
same,Effect on implantation of the embryo,[3]; no statistical significance,interferes negatively with implantation
same,Number of pregnancies,"[3]; 6 plug-positive female mice, sacrificed day 9, vehicle 4 of 6, not statistically significant",2*
same,Area of macular degeneration,"[4]; mean, C57Bl/6 mice, 20 mg/kg/12 h i.p. for 2 weeks after laser, vehicle mean 2.565",Mean: 1.753 μm^2
same,Decrease in macular degeneration lesion area,"[4]; versus vehicle, 20 mg/kg/12 h i.p. for 2 weeks, statistically significant",32%
